Data on 30 molecules can be found in ChEMBL document CHEMBL1158626, “Structure-activity relationship (SAR) investigations of tetrahydroquinolines as BKCa agonists” (2010).

Assay type in all cases: functional
Assay [1] in a line: Agonist activity at human BKCa channel expressed in CHO cells assessed as increase in potassium current at 10 uM by PatchXpress electrophysiology assay relative to control.
Assay [2] in a line: Agonist activity at human BKCa channel expressed in CHO cells assessed as increase in potassium current at 3 uM by PatchXpress electrophysiology assay relative to control.
The species entered for assay [3] is Rattus norvegicus. In words: Reduction in spontaneous neuronal firing in Sprague-Dawley rat at 10 uM.

In the case of `O=C(O)c1ccc2c(c1)[C@@H]1C=CC[C@@H]1[C@@H](c1ncc(Cl)cc1Cl)N2`, in assay [1], the “fold change (FC)” value is reported as 2.5.

Take `O=C(O)c1ccc2c(c1)[C@@H]1C=CC[C@@H]1[C@@H](c1ccc(Cl)c(Cl)c1)N2`: in assay [1], the “fold change (FC)” value is 12.1.

With `O=C(O)c1ccc2c(c1)[C@@H]1C=CC[C@@H]1[C@@H](c1ccc(C(F)(F)F)cc1)N2`, the “fold change (FC)” value in assay [1] is on record as 6.

Turning to `Cn1cc([C@H]2Nc3ccc(C(=O)O)cc3[C@@H]3C=CC[C@H]23)cn1`, the “fold change (FC)” value in assay [1] is listed as 1.

Regarding `O=C(O)c1ccc2c(c1)[C@@H]1C=CC[C@@H]1[C@@H](c1ccc(Cl)cc1)N2`, the “fold change (FC)” value in assay [1] stood at 7.3.

Take `O=C(O)c1ccc2c(c1)[C@@H]1C(O)C(O)C[C@@H]1[C@@H](c1ccc(Cl)cc1Cl)N2` (some centres not stated): the “fold change (FC)” value in assay [2] is 0.9.

Regarding `O=C(O)c1ccc2nc(-c3ccc(Cl)cc3Cl)c3c(c2c1)CCC3`, in assay [2], the “fold change (FC)” value came out at 1.

`CS(=O)(=O)NC(=O)c1ccc2c(c1)[C@@H]1C=CC[C@@H]1[C@@H](c1ccc(Cl)cc1Cl)N2`: the “fold change (FC)” value in assay [2] is listed as 2.7.

With `O=C(O)c1ccc2c(c1)CC[C@@H](c1ccc(Cl)cc1Cl)N2`, in assay [2], the “fold change (FC)” value was determined as 0.9.

`O=C(O)c1ccc2c(c1)[C@@H]1CCC[C@@H]1[C@@H](c1ccc(Cl)cc1Cl)N2`: the “fold change (FC)” value in assay [2] is 4.6.

Take `O=C(O)c1ccc2c(c1)[C@@H]1C=CC[C@@H]1[C@@H](c1cccc(Cl)c1)N2`: the “fold change (FC)” value in assay [1] came out at 2.2.

For `CC(C)(C)[C@H]1Nc2ccc(C(=O)O)cc2[C@@H]2C=CC[C@@H]21`, the “fold change (FC)” value in assay [1] was found to be 0.8.

Regarding `O=C(O)Cc1ccc2c(c1)[C@@H]1C=CC[C@@H]1[C@@H](c1ccc(Cl)cc1Cl)N2`, in assay [2], the “fold change (FC)” value came to 1.5.

In the case of `O=C(O)c1ccc2c(c1)[C@@H]1C=CC[C@@H]1CN2`, the “fold change (FC)” value in assay [1] was determined as 0.6.

Take `O=c1[nH]c(-c2ccc3c(c2)[C@@H]2C=CC[C@@H]2[C@@H](c2ccc(Cl)cc2Cl)N3)no1`: in assay [2], the “fold change (FC)” value is given as 3.4.

Turning to `COC(=O)c1ccc2c(c1)[C@@H]1C=CC[C@@H]1[C@@H](c1ccc(Cl)cc1Cl)N2`, in assay [2], the “fold change (FC)” value worked out at 1.

As for `O=C(O)c1ccc2c(c1)C1OCCC[C@@H]1[C@@H](c1ccc(Cl)cc1Cl)N2` (single isomer, unassigned), the “fold change (FC)” value in assay [2] is given as 1.5.

As to `O=C(O)c1ccc2c(c1)C1C=CCC[C@@H]1[C@@H](c1ccc(Cl)cc1Cl)N2` (single isomer, unassigned), the “fold change (FC)” value in assay [2] was determined as 4.5.

Consider `OCc1ccc2c(c1)[C@@H]1C=CC[C@@H]1[C@@H](c1ccc(Cl)cc1Cl)N2`, for which the “fold change (FC)” value in assay [2] is 1.5.

In the case of `CONC(=O)c1ccc2c(c1)[C@@H]1C=CC[C@@H]1[C@@H](c1ccc(Cl)cc1Cl)N2`, in assay [2], the “fold change (FC)” value amounted to 2.2.

For the molecule `O=C(O)c1ccc2c(c1)[C@@H]1C=CC[C@@H]1[C@@H](c1ccc(Cl)cc1Cl)N2`, the “fold change (FC)” value in assay [2] came out at 6.7; in assay [1], 11.2. Moreover, the “inhibition (INH)” value in assay [3] is listed as 75%.

As for `O=C(O)c1ccc2c(c1)C1CCCC[C@@H]1[C@@H](c1ccc(Cl)cc1Cl)N2` (single isomer, unassigned), the “fold change (FC)” value in assay [2] was 3.6.

Take `O=C(O)c1ccc2c(c1)[C@@H]1C=CC[C@@H]1[C@@H](c1ccccc1Cl)N2`: the “fold change (FC)” value in assay [1] was determined as 4.9.

Take `O=C(O)c1ccc2c(c1)[C@@H]1C=CC[C@@H]1[C@@H](c1ccccc1)N2`: the “fold change (FC)” value in assay [1] is recorded as 1.2.

Regarding `O=C(O)c1ccc2c(c1)[C@@H]1OCC[C@@H]1[C@@H](c1ccc(Cl)cc1Cl)N2`, the “fold change (FC)” value in assay [2] worked out at 1.

For `Cc1ccc([C@H]2Nc3ccc(C(=O)O)cc3[C@@H]3C=CC[C@H]23)c(C)c1`, the “fold change (FC)” value in assay [1] stood at 8.9.

With `O=C(O)c1ccc2c(c1)[C@@H]1C=CC[C@@H]1[C@@H](c1ccc(Br)cc1)N2`, the “fold change (FC)” value in assay [1] is given as 8.9.

For the molecule `O=C(O)c1ccc2c(c1)[C@@H]1C=CC[C@@H]1[C@@H](c1cccc(Cl)c1Cl)N2`, the “fold change (FC)” value in assay [1] turned out to be 2.7.

Take `Cc1cccc([C@H]2Nc3ccc(C(=O)O)cc3[C@@H]3C=CC[C@H]23)c1`: the “fold change (FC)” value in assay [1] amounted to 3.1.

With `O=C(O)c1ccc2c(c1)[C@@H]1C=CC[C@@H]1[C@@H](c1cccc(Br)c1)N2`, the “fold change (FC)” value in assay [1] came out at 2.6.
